# Tests used:
# [1] = system: blood cholesterol; test: Human dose-response study, blood cholesterol, triglycerides and glucose (Example V, Table E); format: in vivo, humans; settings: for % Change After 8 Days, Cholesterol: linear effect p .21; for % Change After 8 Days, LDL: linear effect p .26; for % Change After 8 Days, Triglycerides: linear effect p .50; for % Change After 8 Days, HDL: linear effect p .85; for % Change After 8 Days, Glucose: linear effect p .99
# Description: (§1) Higher dose levels than in Example IV of Ca-HMB were tested in humans. The objective was to obtain an indication of whether higher doses could be safely administered, and also whether higher doses might provide a greater reduction in total cholesterol and LDL cholesterol.
# (§2) Normal humans were used in the study. Ca-HMB was administered in 250 mg capsules, and the subjects were instructed to take the capsules in 4 equal doses daily. No control of diet was attempted except they were instructed to eat as they normally would. On alternate days the subjects had blood drawn before the morning meal and before they took the morning HMB dose. Four subjects were studied for dose level of 05., 1, 2 and 4 grams per day.
# (§3) Results from all samples of each subject were subjected to linear regression and the slope and intercept used to calculate the % change in concentration after 8 days on treatment. The percentage changes were then subjected to ANOVA-regression to determine if there was a linear effect of dosage on the parameter. The dose-response effect (p<) is listed in the linear effect column of Table E.
# [2] = Human dose-response study, body weight and body fat (Example V, Table E); format: in vivo, humans; settings: for % Change After 8 Days, Body fat (%): linear effect NS; for % Change After 8 Days, Weight: linear effect p .32
# Description: as §1, §2, §3
# [3] = Hygroscopicity of HMB salts; format: physicochemical; settings: compared with sodium or potassium salts
# [4] = system: aorta; test: Pig feeding study, aorta streaking (pre-atherosclerotic lesions) (Example III, Table C); format: in vivo, pigs; settings: dietary .05%; 0 least severe to 3.2 most severe; control 1.87; HMB p .06, KIC ns
# Description: (§4) A further large mammal study was carried out with pigs. Pigs comprise test animals which are more similar in certain respects to humans than ruminants.
# (§5) Control: 60 g. of calcium
# (§6) The pigs were housed in pens of two animals each and were allowed ad libitum access to food and water. Pigs were approximately 160 lbs. at the start of the experiment and were 240 lbs. at the end. All pigs were castrate males. At day 28 and day 43 of the experiment blood was collected from the anterior vena cava by venipuncture. Blood was collected into EDTA containing tubes, centrifuged and frozen until analyzed. At approximately 100 days of the experiment half of the animals (32) were slaughtered, and at 120 days the remaining 32 animals were slaughtered. At the time of slaughter the abdominal aorta was dissected out and external fat removed. The aorta was then split lengthwise and 1/2 fixed in formaldehyde for 48 hours. At this time aortas were removed, stretched over a 6 inch stick, washed in ethanol and stained with a lipid stain for 2 hours. After a 1 hour wash aortas were blotted and examined. All the aortas from a group were laid out on a white bench and arranged in order from least sever to most sever. The least sever had no dark red streaks on the aorta or around the small vertebral vessels leaving the aorta. The most sever lesions had multiple streaks in the middle of the aorta and dark red deposits in turbulent areas such as the branching of vessels from the aorta. The ordered aortas were then assigned a consecutive decimal number. The first (least severe) was assigned 0 and the most severe was assigned 3.2 Plasma cholesterol and triglycerides were measured by an enzyme-colorimetric assay (Sigma).
# (§7) statistical analysis was accomplished by the general linear model procedure of the Statistical Analysis System (SAS). The model included the main effects of treatment and pen number. T-tests were conducted from the ANOVA standard error, to compare the HMB treatments to the control. […] It appeared that HMB can partially prevent the formation of pre-atherosclerotic lesions. No effect of KIC was noted relative to any parameter.
# [5] = system: plasma cholesterol and triglycerides; test: Pig feeding study, plasma cholesterol and triglycerides (Example III, Table C); format: in vivo, pigs
# Description: as §4, §5, §6, §7
compound,measurement,setting,value
CC(C)(O)CC(=O)O [Ca-HMB],"% Change After 8 Days, Cholesterol",[1]; 0.5 g daily,6%
same,"% Change After 8 Days, LDL",[1]; 0.5 g daily,2%
same,"% Change After 8 Days, Triglycerides",[1]; 0.5 g daily,26%
same,"% Change After 8 Days, HDL",[1]; 0.5 g daily,0%
same,"% Change After 8 Days, Glucose",[1]; 0.5 g daily,-7%
same,"% Change After 8 Days, Cholesterol",[1]; 1.0 g daily,1%
same,"% Change After 8 Days, LDL",[1]; 1.0 g daily,0%
same,"% Change After 8 Days, Triglycerides",[1]; 1.0 g daily,-16%
same,"% Change After 8 Days, HDL",[1]; 1.0 g daily,6%
same,"% Change After 8 Days, Glucose",[1]; 1.0 g daily,2%
same,"% Change After 8 Days, Cholesterol",[1]; 2 g daily,-2%
same,"% Change After 8 Days, LDL",[1]; 2 g daily,-3%
same,"% Change After 8 Days, Triglycerides",[1]; 2 g daily,-8%
same,"% Change After 8 Days, HDL",[1]; 2 g daily,1%
same,"% Change After 8 Days, Glucose",[1]; 2 g daily,-5%
same,"% Change After 8 Days, Cholesterol",[1]; 4 g daily,-4%
same,"% Change After 8 Days, LDL",[1]; 4 g daily,-6%
same,"% Change After 8 Days, Triglycerides",[1]; 4 g daily,36%
same,"% Change After 8 Days, HDL",[1]; 4 g daily,0%
same,"% Change After 8 Days, Glucose",[1]; 4 g daily,-4%
same,"% Change After 8 Days, Body fat (%)",[2]; 0.5 g daily,5%
same,"% Change After 8 Days, Weight",[2]; 0.5 g daily,1.7%
same,"% Change After 8 Days, Body fat (%)",[2]; 1.0 g daily,-18%
same,"% Change After 8 Days, Weight",[2]; 1.0 g daily,-.3%
same,"% Change After 8 Days, Body fat (%)",[2]; 2 g daily,-15%
same,"% Change After 8 Days, Weight",[2]; 2 g daily,.5%
same,"% Change After 8 Days, Body fat (%)",[2]; 4 g daily,-1%
same,"% Change After 8 Days, Weight",[2]; 4 g daily,.2%
same,hygroscopicity,[3],less hydroscopic than the sodium or potassium salts
"CC(C)CC(=O)C(=O)O [KIC, ketoisocaproic acid, reference compound]",Aorta Streaking,[4],1.48
same,effect relative to any parameter,"[5]; 0.05% KIC in diet, aorta streaking, plasma cholesterol, triglycerides",No effect
same,Plasma Triglycerides,"[5]; dietary .05%, control 107, ns",106 mg %
same,Plasma Cholesterol,"[5]; dietary .05%, control 135, HMB p .05, KIC ns",139 mg %

# — patent publication US5360613A, “Method of reducing blood levels of total cholesterol and low-density lipoprotein cholesterol” (Iowa State University Research Foundation, Inc., priority 1993, dated 1994)
